# Assay results published in US8329717B2, “Pyrimidine derivatives and their use for controlling undesired plant growth” (Bayer Cropscience AG, priority 2008, dated 2012).
# Key:
# Viola tricolor = assay: Pre-emergence herbicidal effect; type: in vivo; conditions: Dosage 320 g/ha, visual scoring after 3 weeks vs untreated controls, 100% = plants have died
# From the text: (§1) 1. Pre-Emergence Herbicidal Effect and Crop Plant Compatibility Seeds of monocotyledonous or dicotyledonous weed plants or crop plants are planted in wood-fiber pots in sandy loam and covered with earth. The compounds according to the invention, formulated in the form of wettable powders (WP) or as emulsion concentrates (EC), are then applied as aqueous suspension or emulsion at a water application rate of 600 to 800 l/ha (converted) with the addition of 0.2% of wetting agent to the surface of the covering earth. The dosage of the compounds according to the invention is given in grams per hectare. Following the treatment, the pots are placed in a greenhouse and kept under good growth conditions for the test plants. The visual scoring of the damage on the test plants is carried out after an experiment time of 3 weeks in comparison with untreated controls (herbicidal effect in percent (%): 100% effect=plants have died, 0% effect=as control plants). The following abbreviations are used in the tables below: [table]
# Echinochloa crus-galli = assay: Pre-emergence herbicidal effect; type: in vivo; conditions: Dosage 320 g/ha, visual scoring after 3 weeks vs untreated controls, 100% = plants have died
# From the text: as §1
# Amaranthus retroflexus = assay: Pre-emergence herbicidal effect; type: in vivo; conditions: Dosage 320 g/ha, visual scoring after 3 weeks vs untreated controls, 100% = plants have died
# From the text: as §1
# Matricaria inodora = assay: Pre-emergence herbicidal effect; type: in vivo; conditions: Dosage 320 g/ha, visual scoring after 3 weeks vs untreated controls, 100% = plants have died
# From the text: as §1
# Veronica persica = assay: Pre-emergence herbicidal effect; type: in vivo; conditions: Dosage 320 g/ha, visual scoring after 3 weeks vs untreated controls, 100% = plants have died
# From the text: as §1
# Stellaria media = assay: Pre-emergence herbicidal effect; type: in vivo; conditions: Dosage 320 g/ha, visual scoring after 3 weeks vs untreated controls, 100% = plants have died
# From the text: as §1
# Polygonum convolvulus = assay: Pre-emergence herbicidal effect; type: in vivo; conditions: Dosage 320 g/ha, visual scoring after 3 weeks vs untreated controls, 100% = plants have died
# From the text: as §1
# Setaria viridis = assay: Pre-emergence herbicidal effect; type: in vivo; conditions: Dosage 320 g/ha, visual scoring after 3 weeks vs untreated controls, 100% = plants have died
# From the text: as §1
# Lolium multiflorum = assay: Pre-emergence herbicidal effect; type: in vivo; conditions: Dosage 320 g/ha, visual scoring after 3 weeks vs untreated controls, 100% = plants have died
# From the text: as §1
# [1] = logp (HCOOH), chemicophysical data; conditions: HCOOH
# Alopecurus myosuroides = assay: Pre-emergence herbicidal effect; type: in vivo; conditions: Dosage 320 g/ha, visual scoring after 3 weeks vs untreated controls, 100% = plants have died
# From the text: as §1
# Avena fatua = assay: Pre-emergence herbicidal effect; type: in vivo; conditions: Dosage 320 g/ha, visual scoring after 3 weeks vs untreated controls, 100% = plants have died
# From the text: as §1
structure (smiles),measurement,setting,value
Cc1nc(N[C@@H]2CCc3ccccc32)nc(N)c1[N+](=O)[O-] [Example 1.123],Pre-emergence herbicidal effect VIOTR,Viola tricolor,100%
same,Pre-emergence herbicidal effect ECHCG,Echinochloa crus-galli,80%
same,Pre-emergence herbicidal effect AMARE,Amaranthus retroflexus,100%
same,Pre-emergence herbicidal effect MATIN,Matricaria inodora,100%
same,Pre-emergence herbicidal effect VERPE,Veronica persica,100%
same,Pre-emergence herbicidal effect STEME,Stellaria media,100%
Cc1nc(NC2CCCc3ccccc32)nc(N)c1[N+](=O)[O-] (racemic) [Example 1.124],Pre-emergence herbicidal effect VIOTR,Viola tricolor,100%
same,Pre-emergence herbicidal effect POLCO,Polygonum convolvulus,90%
same,Pre-emergence herbicidal effect AMARE,Amaranthus retroflexus,100%
same,Pre-emergence herbicidal effect MATIN,Matricaria inodora,90%
same,Pre-emergence herbicidal effect VERPE,Veronica persica,100%
same,Pre-emergence herbicidal effect STEME,Stellaria media,100%
same,Pre-emergence herbicidal effect SETVI,Setaria viridis,80%
Nc1cc(Cl)nc(N[C@@H]2CCCc3ccccc32)n1 [Example 1.76],Pre-emergence herbicidal effect AMARE,Amaranthus retroflexus,90%
same,Pre-emergence herbicidal effect MATIN,Matricaria inodora,100%
same,Pre-emergence herbicidal effect VERPE,Veronica persica,100%
same,Pre-emergence herbicidal effect STEME,Stellaria media,100%
Cc1ccc2c(c1)[C@H](Nc1ncc(C)c(N)n1)[C@@H](C)C2 [Example 1.51],Pre-emergence herbicidal effect MATIN,Matricaria inodora,100%
same,Pre-emergence herbicidal effect VERPE,Veronica persica,100%
same,Pre-emergence herbicidal effect STEME,Stellaria media,100%
same,Pre-emergence herbicidal effect LOLMU,Lolium multiflorum,100%
Cc1ccc2c(c1)[C@H](Nc1nc(N)c(C#N)c(C(C)C)n1)[C@@H](C)C2 [Example 1.64],logp (HCOOH),[1],"wax-like; logp (HCOOH): 3.90; 1H-NMR (CDCl3, 400 MHZ, δ in ppm): 1.25 (m, 9H,"
Cc1ccc2c(c1)[C@H](Nc1ncc(C#CCC(C)C)c(N)n1)[C@@H](C)C2 [Example 1.249],logp (HCOOH),[1],"wax-like; logp (HCOOH): 1.73; 1H-NMR (CDCl3, 400 MHZ, δ in ppm): 1.00 (d, 6H,"
Cc1ccc2c(c1)[C@H](Nc1nccc(N)n1)[C@@H](C)C2 [Example 1.38],logp (HCOOH),[1],"wax-like; logp (HCOOH): 1.25; 1H-NMR (CDCl3, 400 MHZ, δ in ppm): 1.25 (m, 3H, CH3);"
Cc1ccc2c(c1)[C@H](Nc1ncc(C(F)(F)F)c(N)n1)[C@@H](C)C2 [Example 1.107],logp (HCOOH),[1],"wax-like, logp (HCOOH): 2.11; 1H-NMR (CDCl3, 400 MHZ, δ in ppm): 1.25 (d, 3H, CH3);"
Cc1ccc2c(c1)[C@H](Nc1nc(N)cc(N(C)C)n1)[C@@H](C)C2 [Example 1.91],logp (HCOOH),[1],"wax-like; logp (HCOOH): 1.66; 1H-NMR (CDCl3, 400 MHZ, δ in ppm): 1.25 (d, 3H, CH3);"
Cc1nc(NC2c3ccccc3CC2C)nc(N)c1[N+](=O)[O-] (racemic) [Example 1.125],Pre-emergence herbicidal effect VIOTR,Viola tricolor,100%
same,Pre-emergence herbicidal effect ECHCG,Echinochloa crus-galli,90%
same,Pre-emergence herbicidal effect POLCO,Polygonum convolvulus,90%
same,Pre-emergence herbicidal effect ALOMY,Alopecurus myosuroides,80%
same,Pre-emergence herbicidal effect AMARE,Amaranthus retroflexus,90%
same,Pre-emergence herbicidal effect MATIN,Matricaria inodora,95%
same,Pre-emergence herbicidal effect VERPE,Veronica persica,100%
same,Pre-emergence herbicidal effect STEME,Stellaria media,100%
same,Pre-emergence herbicidal effect SETVI,Setaria viridis,90%
Cc1ccc2c(c1)C(Nc1ncc(I)c(N)n1)C(C)C2 (mixture of isomers) [Example 1.87],logp (HCOOH),[1],"wax-like; logp (HCOOH): 1.37; 1H-NMR (CDCl3, 400 MHZ, δ in ppm): 1.25 (d, 3H, CH3);"
COc1ccc2c(c1)C(Nc1ncc(C(F)(F)F)c(N)n1)CCO2 (racemic) [Example 1.239],logp (HCOOH),[1],wax-like; logp (HCOOH): 1.46
CC1Cc2ccc(F)cc2C1Nc1ncc(C(F)(F)F)c(N)n1 (racemic) [Example 1.243],logp (HCOOH),[1],"wax-like; logp (HCOOH): 1.93; 1H-NMR (CDCl3, 400 MHZ, δ in ppm): 0.95 (d, 3H, CH3);"
Cc1ccc2c(c1)[C@H](Nc1nc(N)c(C#N)c(-c3ccccc3C)n1)[C@@H](C)C2 [Example 1.77],logp (HCOOH),[1],"solid; logp (HCOOH): 3.83; 1H-NMR (CDCl3, 400 MHZ, δ in ppm): 1.25 (m, 3H, CH3);"
Cc1ccc2c(c1)[C@H](Nc1ncc(C#CCO)c(N)n1)[C@@H](C)C2 [Example 1.222],logp (HCOOH),[1],"wax-like; logp (HCOOH): 1.04; 1H-NMR (CDCl3, 400 MHZ, δ in ppm): 1.25 (d, 3H, CH3);"
Cc1ccc2c(c1)[C@H](Nc1nc(N)c(C#N)c(C3(c4ccc(Cl)cc4Cl)CC3)n1)[C@@H](C)C2 [Example 1.94],logp (HCOOH),[1],"wax-like; logp (HCOOH): 5.55; 1H-NMR (CDCl3, 400 MHZ, δ in ppm): 1.25 (d, 3H, CH3);"
same,Pre-emergence herbicidal effect VIOTR,Viola tricolor,100%
same,Pre-emergence herbicidal effect ECHCG,Echinochloa crus-galli,90%
same,Pre-emergence herbicidal effect POLCO,Polygonum convolvulus,80%
same,Pre-emergence herbicidal effect AVEFA,Avena fatua,80%
same,Pre-emergence herbicidal effect ALOMY,Alopecurus myosuroides,80%
same,Pre-emergence herbicidal effect AMARE,Amaranthus retroflexus,90%
same,Pre-emergence herbicidal effect MATIN,Matricaria inodora,85%
same,Pre-emergence herbicidal effect VERPE,Veronica persica,100%
same,Pre-emergence herbicidal effect STEME,Stellaria media,100%
same,Pre-emergence herbicidal effect LOLMU,Lolium multiflorum,80%
same,Pre-emergence herbicidal effect SETVI,Setaria viridis,90%
Cc1cc(C)c2c(c1)C(Nc1ncc(C#N)c(N)n1)CCC2 (racemic) [Example 1.271],logp (HCOOH),[1],"wax-like; logp (HCOOH): 2.60; 1H-NMR (CDCl3, 400 MHZ, δ in ppm): 1.85 (m, 3H, 3H"
Cc1nc(NC2CCOc3ccccc32)nc(N)c1[N+](=O)[O-] (racemic) [Example 1.121],Pre-emergence herbicidal effect VIOTR,Viola tricolor,100%
same,Pre-emergence herbicidal effect ECHCG,Echinochloa crus-galli,100%
same,Pre-emergence herbicidal effect POLCO,Polygonum convolvulus,100%
same,Pre-emergence herbicidal effect ALOMY,Alopecurus myosuroides,80%
same,Pre-emergence herbicidal effect AMARE,Amaranthus retroflexus,100%
same,Pre-emergence herbicidal effect MATIN,Matricaria inodora,100%
same,Pre-emergence herbicidal effect VERPE,Veronica persica,100%
same,Pre-emergence herbicidal effect STEME,Stellaria media,100%
same,Pre-emergence herbicidal effect LOLMU,Lolium multiflorum,90%
same,Pre-emergence herbicidal effect SETVI,Setaria viridis,100%
Cc1ccc2c(c1)[C@H](Nc1ncc(C#Cc3cccc(C(F)(F)F)c3)c(N)n1)[C@@H](C)C2 [Example 1.247],logp (HCOOH),[1],"wax-like; logp (HCOOH): 2.60; 1H-NMR (CDCl3, 400 MHZ, δ in ppm): 1.25 (d, 3H, CH3);"
Cc1cccc2c1CCC2Nc1ncc(C(F)(F)F)c(N)n1 (racemic) [Example 1.254],logp (HCOOH),[1],"wax-like; logp (HCOOH): 1.75; 1H-NMR (CDCl3, 400 MHZ, δ in ppm): 2.10 (s, 3H,"
Nc1nc(N[C@@H]2CCc3ccccc32)ncc1C(F)(F)F [Example 1.237],logp (HCOOH),[1],"wax-like; logp (HCOOH): 1.50; 1H-NMR (CDCl3, 400 MHZ, δ in ppm): 1.80 (m, 1H, 1H"
C#Cc1cnc(N[C@@H]2CCCc3ccccc32)nc1N [Example 1.116],logp (HCOOH),[1],"wax-like; logp (HCOOH): 1.09; 1H-NMR (CDCl3, 400 MHZ, δ in ppm): 1.80 (m, 3H, 3H"
CCc1ccc2c(c1)C(Nc1ncc(C(F)(F)F)c(N)n1)CCO2 (racemic) [Example 1.238],logp (HCOOH),[1],"wax-like; logp (HCOOH): 2.02; 1H-NMR (CDCl3, 400 MHZ, δ in ppm): 1.15 (t, 3H, CH3);"
COC(=O)c1cc(N)nc(N[C@H]2c3cc(C)ccc3C[C@@H]2C)n1 [Example 1.118],logp (HCOOH),[1],"wax-like; logp (HCOOH): 2.96; 1H-NMR (CDCl3, 400 MHZ, δ in ppm): 1.30 (d, 3H, CH3);"
N#Cc1c(N)nc(N[C@@H]2CCCc3ccccc32)nc1C1(c2ccc(Cl)cc2Cl)CC1 [Example 1.86],logp (HCOOH),[1],"wax-like; logp (HCOOH): 5.15; 1H-NMR (CDCl3, 400 MHZ, δ in ppm): 1.25 (br, 2H,"
COC(=O)c1cc(N)nc(NC2CCCc3ccccc32)n1 (racemic) [Example 1.212],logp (HCOOH),[1],"wax-like; logp (HCOOH): 2.54; 1H-NMR (CDCl3, 400 MHZ, δ in ppm): 1.80-2.10 (m,"
